Measurements: publication PMC6269660, “Anti-Inflammatory Cycloartane-Type Saponins of Astragalus membranaceus” (Molecules, 2013)

What was measured:
Type in all cases: cell-based
[1] = test system: LPS-induced NO production in RAW 264.7 macrophage cells; assay: Inhibition of LPS-induced NO production (nitrite, Griess reagent); details: for inhibition of NO production (in words): LPS-induced RAW264.7 macrophages
Protocol: Previous studies have already reported on the anti-inflammatory effects of components obtained from A. membranaceus. Thus, we also investigated the inhibitory effects of compounds 1–5 on NO production by using the Griess reaction to measure nitrite, a soluble oxidation product of NO, in the culture medium of LPS-induced RAW 264.7 macrophages.
(§1) Assays for NO production and cell viability were carried out as previously described. Briefly, RAW 264.7 macrophages were harvested and seeded in 24-well plates (3 × 10^5 cells/well) for the measurement of NO production. The plates were pretreated with various concentrations of samples for 1 h and incubated with LPS (1 μg/mL) for 7 h. The amount of NO was determined by the nitrite concentration in the cultured RAW264.7 macrophage supernatants using the Griess reagent. The cell viability was evaluated by MTT reduction.

[2] = Cell viability by MTT reduction; details: mouse, at a concentration of 100 μM, RAW 264.7 cells, MTT reduction, mean ± SD of three independent experiments
Protocol: as §1

RAW 264.7 macrophages = assay: Cell viability by MTT reduction; details: RAW 264.7 cells treated with compounds
Protocol: as §1

SMILES	inhibition of NO production (in words) [1]	viability at 8 h, 100 µM [2] [%]	cell toxicity / influence on cell viability (in words) (RAW 264.7 macrophages)	viability at 8 h, 100 µM ([2]; RAW 264.7 macrophages) [%]	IC50 ([1]; Mus musculus, RAW264.7, LPS-activated RAW 264.7 cells, pretreated 1 h with compounds, then LPS (1 μg/mL) for 7 h, mean ± SD of three independent experiments) [nM]
CC(C)(O)[C@@H]1CC[C@](C)([C@H]2[C@@H](O)C[C@@]3(C)[C@@H]4C[C@H](O[C@@H]5O[C@H](CO)[C@@H](O)[C@H](O)[C@H]5O)[C@H]5C(C)(C)[C@@H](O[C@@H]6OC[C@@H](O)[C@H](O)[C@H]6O)CC[C@@]56C[C@@]46CC[C@]23C)O1 [Compound 5, astragaloside IV]	significant inhibition of NO production	94.4 ± 4.33	without cytotoxicity	–	–
CC(=O)OC1C(OC2CCC34CC35CCC3(C)C(C(C)CCC(O)C(C)(C)O)C(O)CC3(C)C5CC(OC3OC(CO)C(O)C(O)C3O)C4C2(C)C)OCC(O)C1O (centres unmarked) [Compound 3, agroastragaloside II]	–	–	Some cell toxicity was observed	47.6 ± 3.4	–
CC(=O)O[C@@H]1[C@@H](O)[C@H](O[C@H]2CC[C@]34C[C@]35CC[C@]3(C)[C@@H]([C@@]6(C)CC[C@@H](C(C)(C)O)O6)[C@@H](O)C[C@@]3(C)[C@@H]5C[C@H](O[C@@H]3O[C@H](CO)[C@@H](O)[C@H](O)[C@H]3O)[C@H]4C2(C)C)OC[C@H]1O [Compound 4, isoastragaloside II]	–	–	Some cell toxicity was observed	69 ± 1.82	–
CC(=O)OC1C(O)COC(OC2CCC34CC35CCC3(C)C(C(C)CCC(O)C(C)(C)O)C(O)CC3(C)C5CC(OC3OC(CO)C(O)C(O)C3O)C4C2(C)C)C1OC(C)=O (centres unmarked) [Compound 2, agroastragaloside I]	–	–	Some cell toxicity was observed	54.5 ± 1.21	–
CC(=O)OC1C(OC2CCC34CC35CCC3(C)C(C(C)CCC(O)C(C)(C)O)CCC3(C)C5CC(OC3OC(CO)C(O)C(O)C3O)C4C2(C)C)OCC(O)C1O [Compound 1, 3-O-β-(2'-O-acetyl)-D-xylopyranosyl-6-O-β-D-glucopyranosyl-(24S)-3β,6α,24α,25-tetrahydroxy-9,19-cyclolanostane]	significant inhibition of NO production	–	without cytotoxicity	93.2 ± 6.96	–
O=C(O)/C=C/c1ccc(O)c(O)c1 [Caffeic acid, reference compound]	–	82.2 ± 1.64	–	–	830 ± 1150
